Measurements reported in patent US6710049B2, “Azole compounds as anti-fungal agents” (Ranbaxy Laboratories Limited, priority 2000, dated 2004).

How the values were obtained:
Test in all cases: MIC determination (NCCLS broth method)
Fusarium 1827C = assay type: cell-based
Excerpt: (§1) The in-vitro evaluation of the antifungal activity of the compounds can be performed by determining the minimum inhibitory concentration (MIC) as shown in Table 1 which is the concentration of the test compound in Rosewell Park Memorial Institute (RPMI) 1640 liquid medium buffered with 3-(Morpholino)propanesulphonic acid (MOPS) to pH 7, at which there is significant inhibition of the particular fungi. In practice the National Committee for Clinical Laboratory Standard (NCCLS) M27A document for Candida and Cryptococcus and M38P for Aspergillus was used to determine the MIC against yeast and filamentous fungi with suitable modifications for dermatophytes to other filamentous fungi. Three quality control strains were included each time the MIC were determined and readings recorded only when the Quality Control results fell into the acceptable range. After MIC results had been recorded, 100 μl from each of the well showing no growth was spread over Sabouraud Dextrose Agar (SDA) to determine the minimum fungicidal concentration (MFC) as shown in Table 2.

Fusarium 1050 = assay type: cell-based
Excerpt: as §1

A flavus P3 - 1041 = assay type: cell-based
Excerpt: as §1

Penicillium 3162 = assay type: cell-based
Excerpt: as §1

Mucor (Ceylon) = assay type: cell-based
Excerpt: as §1

A niger P1 - 1046 = assay type: cell-based
Excerpt: as §1

C krusei 6258 = assay type: cell-based
Excerpt: as §1

Penicillium H - 1048 = assay type: cell-based
Excerpt: as §1

Fusarium 2960C = assay type: cell-based
Excerpt: as §1

H capsulatum = assay type: cell-based
Excerpt: as §1

C parapsilosis 22019 = assay type: cell-based
Excerpt: as §1

Penicillium I - 1049 = assay type: cell-based
Excerpt: as §1

A flavus P2 - 1045 = assay type: cell-based
Excerpt: as §1

A flavus E3 - 1044 = assay type: cell-based
Excerpt: as §1

A flavus E2 - 1043 = assay type: cell-based
Excerpt: as §1

Penicillium 2548 = assay type: cell-based
Excerpt: as §1

C krusei 766.1 = assay type: cell-based
Excerpt: as §1

Rhizopus (Ceylon) = assay type: cell-based
Excerpt: as §1

Alternaria 1051 = assay type: cell-based
Excerpt: as §1

Penicilliuim 2306 = assay type: cell-based, Penicillium
Excerpt: as §1

C[C@@H](n1ncn(-c2ccc(N3CCN(c4ccc(Cl)cc4)CC3)cc2)c1=S)[C@](O)(Cn1cncn1)c1ccc(F)cc1F [Compound No. 1, 2-{[1R,2R]-2-(2,4-Difluorophenyl)-2-hydroxy-1-methyl-3-(1H-1,2,4-triazole-1-yl)propyl}-4-{4-[4-(4-chlorophenyl)-1-piperizinyl]phenyl}-3-(2H,4H)-1,2,4-thiotriazolone]
Minimum Inhibitory Concentration (MIC) (Fusarium 1827C): 2 µg/mL | Minimum Inhibitory Concentration (MIC) (Fusarium 1050): 1 µg/mL | Minimum Inhibitory Concentration (MIC) (A flavus P3 - 1041): 0.008 µg/mL | Minimum Inhibitory Concentration (MIC) (Penicillium 3162): 0.03 µg/mL | Minimum Inhibitory Concentration (MIC) (Mucor (Ceylon)): 0.004 µg/mL | Minimum Inhibitory Concentration (MIC) (A niger P1 - 1046): 0.03 µg/mL | Minimum Inhibitory Concentration (MIC) (C krusei 6258): 0.06 µg/mL | Minimum Inhibitory Concentration (MIC) (Penicillium H - 1048): 0.03 µg/mL | Minimum Inhibitory Concentration (MIC) (Fusarium 2960C): 2 µg/mL | Minimum Inhibitory Concentration (MIC) (H capsulatum): 0.06 µg/mL | Minimum Inhibitory Concentration (MIC) (C parapsilosis 22019): 0.004 µg/mL | Minimum Inhibitory Concentration (MIC) (Penicillium I - 1049): 0.03 µg/mL | Minimum Inhibitory Concentration (MIC) (A flavus P2 - 1045): 0.016 µg/mL | Minimum Inhibitory Concentration (MIC) (A flavus E3 - 1044): 0.016 µg/mL | Minimum Inhibitory Concentration (MIC) (A flavus E2 - 1043): 0.008 µg/mL | Minimum Inhibitory Concentration (MIC) (Penicillium 2548): 0.125 µg/mL | Minimum Inhibitory Concentration (MIC) (C krusei 766.1): 0.125 µg/mL | Minimum Inhibitory Concentration (MIC) (Rhizopus (Ceylon)): 0.125 µg/mL | Minimum Inhibitory Concentration (MIC) (Alternaria 1051): 0.03 µg/mL | Minimum Inhibitory Concentration (MIC) (Penicilliuim 2306): 0.016 µg/mL
